Experimental data: publication PMC12223310, “Mining the heparinome for cryptic antimicrobial peptides that selectively kill Gram-negative bacteria” (Molecular Systems Biology, 2025)
Values after ≈ are worked out from the molar mass of the structure shown. Square brackets hold non-standard residues; d marks the D form. Ends that are not written are not given here. Peptide text beside a SMILES is read from it.

Tests used:
[1] = system: Escherichia coli; assay type: cell-based, Escherichia coli BW25113
Description: (§1) Antimicrobial activities were determined by the microtiter broth dilution method recommended by the National Committee of Laboratory Safety and Standards (NCLSS), adapted for AMPs (Wiegand et al, [2008]). Briefly, overnight bacterial cell cultures were brought to an exponential growth state (OD600 = 0.4) in MH broth and diluted to a final concentration of 5 × 10^5 CFU/mL. In all, 1:2 peptide serial dilutions were prepared in 96-well polypropylene plates (Greiner, Frickenhausen, Germany), in MH medium containing 0.2% (w/v) of bovine serum albumin (BSA) and 0.02% glacial acetic acid. […] The lowest concentration with no colonies was taken as MBC. The results are the average of three independent studies.

[2] = system: Acinetobacter baumannii; assay type: cell-based, Acinetobacter baumannii ATCC 15308
Description: as §1

[3] = system: Pseudomonas sp (Pseudomonas aeruginosa); assay type: cell-based, Pseudomonas aeruginosa ATCC 15915
Description: as §1

[4] = system: Staphylococcus aureus; assay type: cell-based, Staphylococcus aureus ATCC 12600
Description: as §1

[5] = system: Listeria monocytogenes; assay type: cell-based, Listeria monocytogenes ATCC 19112
Description: as §1

[6] = system: horse erythrocytes; assay type: cell-based
Description: Peptide toxicity was tested on horse erythrocytes (Sandín et al, [2021]). Horse defibrinated blood was washed three times in phosphate buffer saline (PBS) pH 7.2 by centrifugation at 3× 3000 rpm for 10 min, to remove excess hemoglobin in the supernatant and then diluted tenfold in PBS. Next, 50 μL of erythrocytes were added to a 1.5 mL polypropylene tube and incubated with 50 μL of a 1:2 peptide serial dilution in PBS. An erythrocyte disruption (ED) control was prepared by adding 50 μL of 0.1% TritonX-100 in PBS instead of the peptides and an intact erythrocyte (IC) control by adding 50 μL of PBS alone. All samples and controls were incubated for 2 h at 37 °C. Samples were centrifuged at 3000 rpm for 3 min, and the supernatants were transferred to a polystyrene 96-well plate and inspected for ED by reading the absorbance at 540 nm in a Tecan Spark instrument (Tecan, Männedorf, Switzerland). The results are the average of three independent studies. The hemolysis percentage was calculated as: Hemolysis%=Sample−IC/ED−IC×100

[7] = in vitro; assay type: cell-based; details: human, MRC-5 cells
Description: (§2) Toxicity in MRC-5 and HepG2 cells was tested by the MTT assay, as described (Bello-Madruga et al, [2023]). Cell lines were maintained in Eagle’s minimum essential medium (MEMα) supplemented with 10% fetal bovine serum (FBS). Cells were cultured in 75-cm^2 flasks and then transferred to polystyrene 96-well plates, at 3 × 10^4 cells per well, and incubated overnight for attachment to the well surface. Then culture media was removed and 1:2 peptide serial dilutions in MEMα were added to each well and later incubated for 4 h. After incubation, peptides were removed and 100 μL of 0.5 mg/mL MTT staining solution in MEMα supplemented with 10% FBS was added to cells and incubated for 1.5 h at 37 °C. Formazan crystals in living cells were detected after disruption with 200 μL dimethyl sulfoxide and then absorbance was measured at 570 nm in a Tecan Spark instrument (Tecan, Männedorf, Switzerland). The results are the average of three independent studies.

[8] = assay type: in vitro ADME
Description: 500 µL of 1 mM peptide stock in MiliQ water were mixed with 500 µL of human serum (Sigma-Aldrich, St. Louis, MO, USA). The mixture was incubated at 37 °C with shaking, and at various time points aliquots were taken and proteolysis was stopped with cold acetonitrile (80% in MiliQ water). The samples were chilled at 4 °C for 10 min to precipitate serum proteins, and centrifuged at 13,000 rpm at 4 °C for 15 min. The supernatant was collected and analyzed by LC and LC-MS with a –60% linear gradient of solvent B (0.036%TFA in ACN) into A (0.045% TFA in H2O) over 15 min at 1 mL/min flow rate. Unaltered peptide was determined by peak integration, expressed as the percent of the amount at 0 min, and data were fitted to a one-phase exponential decay model using GraphPad Prism 8.01 to estimate half-life time (t1/2). The results are the average of three independent experiments.

[9] = system: Enterococcus faecium; assay type: cell-based, Enterococcus faecium ATCC 19434
Description: as §1

[10] = system: A. baumannii 3878; assay type: cell-based
Description: as §1

[11] = system: A. baumannii 3880; assay type: cell-based
Description: as §1

[12] = system: E. coli 1166795; assay type: cell-based
Description: as §1

[13] = system: E. coli CFT073; assay type: cell-based
Description: as §1

[14] = system: P. aeruginosa 827632; assay type: cell-based
Description: as §1

[15] = system: P. aeruginosa 827651; assay type: cell-based
Description: as §1

[16] = system: MRC-5 cells; assay: in vitro; assay type: cell-based
Description: as §2

[17] = Cytotoxicity, MTT assay; assay type: cell-based; details: human, HepG2 cells, 4 h peptide incubation in MEMα, average of three studies, read-out: LC50 (HepG2 cells)
Description: as §2

**Q.** With `CC(C)C[C@@H](NC(=O)[C@@H](CC(N)=O)NC(=O)[C@H](N)Cc1c[nH]cn1)C(=O)N[C@H](Cc1ccccc1)C(=O)N[C@H](CCCNC(=N)N)C(=O)N[C@H](CCCCN)C(=O)N[C@H](CC(C)C)C(=O)N[C@@H](C(=O)N[C@H](Cc1c[nH]cn1)C(=O)N[C@H](CCCNC(=N)N)C(=O)N[C@H](CC(C)C)C(=O)N[C@H](Cc1ccccc1)C(=O)N[C@H](CCCNC(=N)N)C(=O)N[C@H](CCCNC(=N)N)C(=O)N[C@H](CC(N)=O)C(=O)N[C@H](Cc1ccccc1)C(=O)NCC(=O)N[C@H](Cc1ccc(O)cc1)C(=O)N[C@@H](C(=O)N[C@H](CC(C)C)C(=O)N[C@H](CCCNC(=N)N)C(=O)N[C@H](CO)C(=O)N[C@@H](C(N)=O)C(C)C)[C@H](C)O)[C@H](C)O` [dHBP-5] (H-[dH][dN][dL][dF][dR][dK][dL][dT][dH][dR][dL][dF][dR][dR][dN][dF]G[dY][dT][dL][dR][dS][dV]-NH2) as the compound, how does the “MIC E. coli” value [1] read?
**A.** The value was 0.1 µM (≈ 0.293 µg/mL).

**Q.** And the “MIC A. baumannii” value [2]?
**A.** The value was 0.2 µM (≈ 0.586 µg/mL).

**Q.** And the “MIC Pseudomonas sp” value [3]?
**A.** Its value is 0.2 µM (≈ 0.586 µg/mL).

**Q.** And the “MIC S. aureus” value [4]?
**A.** The value was 0.8 µM (≈ 2.35 µg/mL).

**Q.** What about the “MIC L. monocytogenes” value [5] of the same compound?
**A.** The value was 0.4 µM (≈ 1.17 µg/mL).

**Q.** What about the “Hemolysis (250 µM peptide)” value [6] of the same compound?
**A.** The value was 29 ± 1.

**Q.** And the CC50 at 4 h [7]?
**A.** Its CC50 at 4 h is 30 ± 1 µM.

**Q.** And the “half-life in human serum” value [8]?
**A.** Its value is “exceeding 6 hours”.

**Q.** For HNLFRKLTHRLFRRNFGYTLRSV-NH2 [HBP-5], which MBC E. coli [1] is on record?
**A.** Its MBC E. coli is 0.4 µM.

**Q.** And the MIC E. coli [1]?
**A.** Its MIC E. coli is 0.4 µM.

**Q.** And the MBC A. baumannii [2]?
**A.** The MBC A. baumannii was 0.2 µM.

**Q.** And the MIC A. baumannii [2]?
**A.** The MIC A. baumannii was 0.2 µM.

**Q.** What about the MBC Pseudomonas sp [3] of the same compound?
**A.** Its MBC Pseudomonas sp is 0.8 µM.

**Q.** And the MIC Pseudomonas sp [3]?
**A.** Its MIC Pseudomonas sp is 0.8 µM.

**Q.** And the MBC S. aureus [4]?
**A.** Its MBC S. aureus is 6.3 µM.

**Q.** What about the MIC S. aureus [4] of the same compound?
**A.** Its MIC S. aureus is 6.3 µM.

**Q.** What about the “MBC E. faecium” value [9] of the same compound?
**A.** Its value is 6.3 µM.

**Q.** And the “MIC E. faecium” value [9]?
**A.** Its value is 3.1 µM.

**Q.** What about the “MBC L. monocytogenes” value [5] of the same compound?
**A.** The value was 3.1 µM.

**Q.** What about the “MIC L. monocytogenes” value [5] of the same compound?
**A.** The value was 1.6 µM.

**Q.** And the “MBC A. baumannii 3878” value [10]?
**A.** The value was 0.2 µM.

**Q.** What about the “MIC A. baumannii 3878” value [10] of the same compound?
**A.** The value was 0.2 µM.

**Q.** And the “MBC A. baumannii 3880” value [11]?
**A.** The value was 0.4 µM.

**Q.** And the “MIC A. baumannii 3880” value [11]?
**A.** The value was 0.4 µM.

**Q.** What about the “MBC E. coli 1166795” value [12] of the same compound?
**A.** Its value is < 0.1 µM.

**Q.** What about the “MIC E. coli 1166795” value [12] of the same compound?
**A.** The value was < 0.1 µM.

**Q.** And the “MBC E. coli CFT073” value [13]?
**A.** Its value is 0.8 µM.

**Q.** And the “MIC E. coli CFT073” value [13]?
**A.** The value was 0.4 µM.

**Q.** What about the “MBC P. aeruginosa 827632” value [14] of the same compound?
**A.** Its value is 1.6 µM.

**Q.** And the “MIC P. aeruginosa 827632” value [14]?
**A.** The value was 1.6 µM.

**Q.** And the “MBC P. aeruginosa 827651” value [15]?
**A.** The value was 1.6 µM.

**Q.** And the “MIC P. aeruginosa 827651” value [15]?
**A.** The value was 0.8 µM.

**Q.** And the “Hemolysis (250 µM peptide)” value [6]?
**A.** The value was 23 ± 1.

**Q.** And the CC50 at 4 h [7]?
**A.** The CC50 at 4 h was 69 ± 2 µM.

**Q.** What about the “LC50 (MRC-5 cells, µM)” value [16] of the same compound?
**A.** Its value is 69 µM.

**Q.** What about the CC50 at 4 h [17] of the same compound?
**A.** The CC50 at 4 h was 80 µM.

**Q.** What does the source list for HNLFRKLTHRLFRRNFGYTL-NH2 [HBP-5 [1–20]]?
**A.** MIC E. coli [1]: 0.4 µM; MIC A. baumannii [2]: 0.4 µM; MIC Pseudomonas sp [3]: 0.4 µM; MIC S. aureus [4]: 6.3 µM; MIC L. monocytogenes [5]: 1.6 µM; Hemolysis (250 µM peptide) [6]: 24 ± 2; CC50 at 4 h [7]: 63 ± 1 µM
